Legend:
[1] = dihydropyridine-based compound alone, well known; cited from earlier work
rat, Wistar outbred = assay: Example AA: 14-day oral (diet) dose-range toxicity study; type: in vivo; settings: via the diet, 14 consecutive days
From the text: The aim of this study is to select appropriate dose-levels for the main study.
Materials and Methods: • Groups: one control group and four test groups (4 males and 4 female per group) administered with different dose levels of the test substance; • Housing: 2 rats/sex/cage, macrolon cages; • Species: rat, Wistar outbred, Charles River Wiga GmbH, 9-10 weeks of age at start; • Carrier: Commercial rodent diet (Rat & Mouse No. 3 Breeding diet, RM3), ad libitum; • Treatment: Administration via the diet during 14 consecutive days; one batch of test diets is prepared shortly before initiation of treatment and stored in a freezer/refrigerator; the feed in the animal feeders is refreshed twice per week; • Clinical observations: general observations (all rats): daily; morbidity is checked again in the afternoon; • Body weight: at least once pretest, twice per week from the start of treatment (for the last time, on the day of scheduled necropsy); • Food consumption: twice weekly per cage (2 rats/cage) from the start of treatment; • Water consumption: visual inspection of the drinking bottles; • Pathology: • macroscopic examination (all rats); • weighing the following organs of all the surviving rats: kidneys, liver, spleen, testes, thymus; • preservation: the weighed organs are preserved in formalin and discarded when the results of the subsequent 90-day study indicate non need for microscopy on tissues from the 14-day study;
(§1) On each day of analysis, calibration solutions are prepared by spiking rodent diet with a stock solution of the organotin compound followed by derivatisation with sodium tetraethyl borate, in order to derivatise the octyltin compounds to the corresponding octyltin-ethyl compounds, with simultaneous extraction of the derivatised compounds into hexane.
(§2) The concentration of the test substance in diet is then determined by GC-MS of the hexane extracts.

wistar rats = assay: Example AB: reproduction/developmental toxicity screening test (OECD 421); type: in vivo, rat
From the text: The objective of this study is to assess whether octyltin tris (2-ethylexylmercaptoacetate) causes adverse effects on reproduction and/or development of wistar rats. This study was preceded by a dose-range finding study (see Example AA).
Materials and Methods: • Groups: one control group and three test groups (12 males and 12 female per group) administered with different dose levels of the test substance; • Housing: Pre-mating (PM): 4 rats/sex/cage, macrolon cages; • Mating (M): 1 male and 1 female per cage; • Gestation (G) and lactation: 1 rat/sex/cage, macrolon cages; • Species: rat, Wistar outbred, Charles River Wiga GmbH, 9-10 weeks of age at start; • Carrier: Commercial rodent diet (Rat & Mouse No. 3 Breeding diet, RM3), ad libitum; • Treatment: Administration via the diet during 14 consecutive days premating; during 14 consecutive days mating, gestation and lactation up to 4 days (males are given the test substance in the diet until sacrifice at the end of the mating period); • one or two batches of test diets are prepared shortly before initiation of treatment and stored in a freezer/refrigerator; the feed in the animal feeders is refreshed once per week; • Clinical observations: general clinical observations (all rats): daily; morbidity is checked again in the afternoon; • Body weight: at least once pretest, males and females, premating and mating weekly; • Food consumption: males and females, premating and mating weekly; for female during gestation: GD 0, 7, 14 and 21 during lactation; PN 1 and 4; • Pups: sex, body, weight, number of live and dead pups, clinical signs PN 1 and 4; • Water consumption: visual inspection of the drinking bottles; • Pathology: • macroscopic examination (all rats); • count: number of implantations (uterus) and corpora lutea (ovaria); • weighing the following organs of all the surviving rats: testes (males), epididymes […], thymus; • preservation all animals): testes, epididymes, seminal vesicles, prostate, ovaries, uterus, thymus and organs and tissues showing macroscopic abnormalities; the organs are preserved in formalin and discarded when the results of the OECD 421 study indicate non need for microscopy; • Histopathology: preserved tissues for control and high level only […].
as §1, §2

[2] = rat, 200, 500 and 1250 mg/kg diet

SMILES: CCCCCCCCCCCCOC(=O)C1=C(C)NC(C)=C(C(=O)OCCCCCCCCCCCC)C1 [DHP, dihydro-1,4-dimethyl-2,6-dicarbododecyloxy-3,5-pyridine]
- result in dynamic thermal stability (colour) test [1]: poor results

SMILES: CCCCCCC[CH2][Sn]([S]CC(=O)OCC(CC)CCCC)([S]CC(=O)OCC(CC)CCCC)[S]CC(=O)OCC(CC)CCCC (centres unmarked) [octyltin tris (2-ethylexylmercaptoacetate)]
- abnormalities at necropsy (rat, Wistar outbred): no abnormalities were observed at necropsy
- change in body weight and food consumption (rat, Wistar outbred): no change in body weight and food consumption
- clinical abnormalities (rat, Wistar outbred): no clinical abnormalities were observed
- effects on organ weights (rat, Wistar outbred): no effects were observed on organ weights
- NOAEL expressed per body weight (wistar rats; female animals): ~96 mg/kg body weight/day
- NOAEL expressed per body weight (wistar rats; male animals): approximately 72 mg/kg body weight/day
- effects on pre- and post-natal development (wistar rats; [2]): No effects were observed
- effects on reproduction organs (wistar rats; [2]): No effects were observed
- tolerability of oral administration (wistar rats; [2]): well tolerated at all dose-levels
- no averse effect level (NOAEL) for parental toxicity, fertility and development (wistar rats; rat, oral via the diet): 1250 mg/kg diet
